Holding throughout (format): physicochemical
The nature of data set [1]: water solubility of crystal form A.
Data set [2] is described as follows: dynamic vapor sorption (DVS) analysis. Particulars: 25° C. On the procedure: DVS analysis: a DVS Intrinsic Dynamic Moisture Adsorption Device of UK SMS Instrument Company was used for detection. The measuring temperature: 25° C.; the relative humidity: 0-95%.
Data set [3] in a line: XRPD crystal form stability on storage. As for the experimental part: XRPD analysis: a Bruker D8 advance diffractometer from German Brook Instruments Co. LTD was used for detection at room temperature, using Cu-Kα ray (λ=1.5418 Å) with 2θ angle scanning from 3° to 40° at a scanning speed of 0.2°/second.
The crystal form A of Rebaudioside D prepared in the above examples was subjected to XRPD analysis under the conditions of 25° C. and RH≤30%. The analysis results are shown in FIG. 6, and it can be seen from FIG. 6 that the crystal form thereof is unchanged and has a good stability.
The crystal form A of Rebaudioside D prepared in the above examples was stored for 6 months under the conditions of 25° C. and RH≤60%. The analysis results are shown in FIG. 7, and it can be seen from FIG. 7 that the crystal form thereof is unchanged and has a good stability.

Data set [4] in a line: HPLC chemical stability on storage. As to conditions: after six months of storage (25° C., relative humidity 60%). As for the experimental part:
HPLC analysis: a 1260 infinity liquid chromatograph from American Agilent Technologies was used for determination. Preparation method for the sample solution: 25-50 mg of the Rebaudioside D sample was accurately weighed, and placed in a 25 ml of volumetric flask, and then a solution of water-acetonitrile (7:3, v/v) was added for dissolution and the volume was set to the scale. The fomulation method for sodium phosphate buffer (specification: 10 mmol/L, pH: 2.6): 2.76 g of sodium dihydrogen phosphate was dissolved in 2 L of water, phosphoric acid was added and the pH was adjusted to 2.6. Chromatographic column: Phenomenex's Luna 5μ C18 (2) 100 A column. Injection volume: 5 μl. Flow rate: 1.0 mL/min. Column temperature: 40° C. Detector: 210 nm of UV detection. Mobile phase: acetonitrile and sodium phosphate buffer (specification: 10 mmol/L, pH: 2.6) at a ratio of 32:68.

Molecules are shown by their SMILES. In brackets after ≈: the same amount, converted by molar mass.

A word on the solubility: it is how much of the substance goes into solution per volume.

As for `C=C1C[C@@]23CCC4[C@@](C)(CCC[C@@]4(C)C(=O)O[C@@H]4OC(CO)[C@@H](O)C(O)C4OC4OC(CO)[C@@H](O)C(O)C4O)C2CC[C@]1(OC1OC(CO)C(O)C(OC2OC(CO)C(O)C(O)C2O)C1OC1OC(CO)C(O)C(O)C1O)C3` (stereo partly drawn) [crystal form A of Rebaudioside D, Rebaudioside D], in data set [1], the solubility was about 600 µg/mL (≈ 531 µM). The “mass percentage of absorbed moisture” value is on record as 0-3.4% in data set [2] (within a relative humidity of 0-40%) and 3.4-7.1% in data set [2] (within a relative humidity of 40-100%). Also, the “crystal form by XRPD” value in data set [3] (25° C. and RH≤30%) is given as “unchanged”. In data set [3] (stored for 6 months, 25° C. and RH≤60%), the “crystal form by XRPD after storage” value is “unchanged”. For the same compound, the “variation of HPLC purity compared with the raw material” value in data set [4] is on record as “less than 0.5%”.

For the origin of these results see US10611789B2, “Crystalline form A of rebaudioside D, and preparation method and application therefor” (ZHUCHENG HAOTIAN PHARM CO., LTD, priority 2015, dated 2020).
